Assay results published in PubChem BioAssay AID330 (DTP/NCI, 2004).
Several values for one entry are separate records, joined by “and”; a condition that tells them apart may be missing. Equal values may be shown once. Inconclusive results and toxic doses are left out. How the source made its calls: active means survival T/C of 150% or more; inactive means T/C below 125% in these data.

Tested on: P388 leukemia ip, CD2F1 mice, survival T/C
Assay: NCI In Vivo Anticancer Drug Screen. Data for tumor model P388 Leukemia (intraperitoneal) in CD2F1 (CDF1) mice
Settings: endpoint: median survival time, higher = longer survival
Summary of the method: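 Mice carrying the transplanted tumor received test compound or vehicle. Survival was recorded in each group, and the value is the treated-group measurement divided by that of the vehicle-treated control group.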

[1] = dose: 50.0 mg/kg/injection, schedule: Q01DX005 (ip), vehicle: saline with Tween-80
[2] = dose: 100.0 mg/kg/injection, schedule: Q01DX005 (ip), vehicle: saline with Tween-80
[3] = dose: 50.0 mg/kg/injection, schedule: Q01DX005 (ip), vehicle: Klucel (hydroxypropylcellulose) (HPC)
[4] = dose: 12.5 mg/kg/injection, schedule: Q01DX005 (ip), vehicle: Klucel (hydroxypropylcellulose) (HPC)
[5] = dose: 25.0 mg/kg/injection, schedule: Q01DX005 (ip), vehicle: Klucel (hydroxypropylcellulose) (HPC)
[6] = dose: 50.0 mg/kg/injection, schedule: Q01DX009 (ip), vehicle: saline
[7] = dose: 100.0 mg/kg/injection, schedule: Q01DX009 (ip), vehicle: saline

Measured: T/C

COC(=O)/N=C/CCC(O)NC(=O)OC (stereo not given)
inactive: [1] 98 % of control | [2] 101 % of control | dose: 200.0 mg/kg/injection, schedule: Q01DX005 (ip), vehicle: saline with Tween-80 92 % of control

Nc1nnc(-c2ccc(Nc3nc4ccccc4[nH]3)c([N+](=O)[O-])c2)s1
inactive: dose: 60.0 mg/kg/injection, schedule: Q01DX005 (ip), vehicle: saline with Tween-80 98 % of control | dose: 120.0 mg/kg/injection, schedule: Q01DX005 (ip), vehicle: saline with Tween-80 101 % of control

CCOC(=O)CC1(C)NC(=O)NC1=O (stereo not given)
inactive: dose: 50.0 mg/kg/injection, schedule: Q04DX003 (ip), vehicle: Klucel (hydroxypropylcellulose) (HPC) 108 % of control | dose: 100.0 mg/kg/injection, schedule: Q04DX003 (ip), vehicle: Klucel (hydroxypropylcellulose) (HPC) 100 % of control | dose: 200.0 mg/kg/injection, schedule: Q04DX003 (ip), vehicle: Klucel (hydroxypropylcellulose) (HPC) 101 % of control | dose: 400.0 mg/kg/injection, schedule: Q04DX003 (ip), vehicle: Klucel (hydroxypropylcellulose) (HPC) 100 % of control

CN(C)c1ccc(C2c3cc4c(cc3OC3(N5CCCC5)CCCCC23)OCO4)cc1 (stereo not given)
inactive: dose: 60.0 mg/kg/injection, schedule: Q01DX005 (ip), vehicle: Klucel (hydroxypropylcellulose) (HPC) 95 % of control | dose: 120.0 mg/kg/injection, schedule: Q01DX005 (ip), vehicle: Klucel (hydroxypropylcellulose) (HPC) 97 % of control | dose: 240.0 mg/kg/injection, schedule: Q01DX005 (ip), vehicle: Klucel (hydroxypropylcellulose) (HPC) 89 % of control

COc1ccc(C(=O)CCN(C)C)c2ccccc12
inactive: dose: 50.0 mg/kg/injection, schedule: Q01DX005 (ip), vehicle: saline 102 % of control | dose: 100.0 mg/kg/injection, schedule: Q01DX005 (ip), vehicle: saline 100 % of control | dose: 200.0 mg/kg/injection, schedule: Q01DX005 (ip), vehicle: saline 93 % of control

CN(C)CCOc1ccc2c(c1)C/C(=C/c1ncc([N+](=O)[O-])n1C)C2=O
inactive: dose: 11.0 mg/kg/injection, schedule: Q01DX009 (ip), vehicle: saline with Tween-80 124 % of control | dose: 15.0 mg/kg/injection, schedule: Q01DX009 (ip), vehicle: saline with Tween-80 109 % of control and 117 % of control | dose: 22.0 mg/kg/injection, schedule: Q01DX009 (ip), vehicle: saline with Tween-80 124 % of control | dose: 30.0 mg/kg/injection, schedule: Q01DX009 (ip), vehicle: saline with Tween-80 119 % of control | dose: 60.0 mg/kg/injection, schedule: Q01DX009 (ip), vehicle: saline with Tween-80 117 % of control | dose: 180.0 mg/kg/injection, schedule: Q01DX009 (ip), vehicle: saline with Tween-80 87 % of control

CC(C)C(=O)N[C@H]1C[C@H]2CCC1(C)C2(C)C
inactive: [3] 103 % of control and 93 % of control | dose: 100.0 mg/kg/injection, schedule: Q01DX005 (ip), vehicle: Klucel (hydroxypropylcellulose) (HPC) 107 % of control and 96 % of control | dose: 200.0 mg/kg/injection, schedule: Q01DX005 (ip), vehicle: Klucel (hydroxypropylcellulose) (HPC) 111 % of control and 95 % of control

Cc1cc(C)n(-c2ccc(N(CCO)CCO)nn2)n1
inactive: dose: 75.0 mg/kg/injection, schedule: Q01DX005 (ip), vehicle: other 93 % of control | dose: 150.0 mg/kg/injection, schedule: Q01DX005 (ip), vehicle: other 88 % of control | dose: 250.0 mg/kg/injection, schedule: Q01DX005 (oral), vehicle: water 103 % of control | dose: 300.0 mg/kg/injection, schedule: Q01DX005 (ip), vehicle: other 93 % of control | dose: 500.0 mg/kg/injection, schedule: Q01DX005 (oral), vehicle: water 116 % of control | dose: 1000.0 mg/kg/injection, schedule: Q01DX005 (oral), vehicle: water 99 % of control

Nc1ccccc1.O=C([CH-]C(=O)C(F)(F)F)c1ccccc1.O=C([CH-]C(=O)C(F)(F)F)c1ccccc1.O=C([CH-]C(=O)C(F)(F)F)c1ccccc1.O=C([CH-]C(=O)C(F)(F)F)c1ccccc1.[Eu+3]
inactive: dose: 100.0 mg/kg/injection, schedule: Q01DX009 (ip), vehicle: Klucel (hydroxypropylcellulose) (HPC) 100 % of control | dose: 200.0 mg/kg/injection, schedule: Q01DX009 (ip), vehicle: Klucel (hydroxypropylcellulose) (HPC) 103 % of control

CCCCCCCN(CCCCCCC)C(=N)c1ccnc2ccccc12
inactive: dose: 6.25 mg/kg/injection, schedule: Q01DX005 (ip), vehicle: Klucel (hydroxypropylcellulose) (HPC) 101 % of control | [4] 99 % of control | [5] 100 % of control

C1=NC(c2ccccc2)C(/C=C/c2ccccc2)N=C1c1ccccc1 (stereo not given)
inactive: dose: 100.0 mg/kg/injection, schedule: Q01DX001 (ip), vehicle: saline 96 % of control | dose: 200.0 mg/kg/injection, schedule: Q01DX001 (ip), vehicle: saline 93 % of control | dose: 400.0 mg/kg/injection, schedule: Q01DX001 (ip), vehicle: saline 86 % of control

CCN(CC)CCCNc1ccc([N+](=O)[O-])c2no[n+]([O-])c12
inactive: [6] 99 % of control | [7] 100 % of control

Oc1ccccc1O
inactive: dose: 3.12 mg/kg/injection, schedule: Q01DX009 (ip), vehicle: saline 112 % of control | dose: 6.25 mg/kg/injection, schedule: Q01DX009 (ip), vehicle: saline 104 % of control | dose: 12.5 mg/kg/injection, schedule: Q01DX009 (ip), vehicle: saline 105 % of control | dose: 25.0 mg/kg/injection, schedule: Q01DX009 (ip), vehicle: saline 105 % of control | [6] 105 % of control and 106 % of control and 107 % of control

FC(F)(F)c1nn2c(-c3cnns3)nnc2s1
inactive: dose: 100.0 mg/kg/injection, schedule: Q01DX001 (ip), vehicle: Klucel (hydroxypropylcellulose) (HPC) 98 % of control | dose: 200.0 mg/kg/injection, schedule: Q01DX001 (ip), vehicle: Klucel (hydroxypropylcellulose) (HPC) 99 % of control | dose: 400.0 mg/kg/injection, schedule: Q01DX001 (ip), vehicle: Klucel (hydroxypropylcellulose) (HPC) 104 % of control

COc1cc(C2CC(=O)N(c3ccc(C)cc3)C(=O)C2)cc(OC)c1OC
inactive: dose: 25.0 mg/kg/injection, schedule: Q01DX005 (ip), vehicle: Klucel + Tween-80 98 % of control | dose: 50.0 mg/kg/injection, schedule: Q01DX005 (ip), vehicle: Klucel + Tween-80 100 % of control and 105 % of control and 122 % of control | dose: 50.0 mg/kg/injection, schedule: Q01DX009 (ip), vehicle: Klucel + Tween-80 108 % of control | dose: 100.0 mg/kg/injection, schedule: Q01DX005 (ip), vehicle: Klucel + Tween-80 106 % of control and 110 % of control (2×) | dose: 114.0 mg/kg/injection, schedule: Q01DX009 (ip), vehicle: Klucel + Tween-80 117 % of control | dose: 175.0 mg/kg/injection, schedule: Q01DX009 (ip), vehicle: Klucel + Tween-80 122 % of control | dose: 200.0 mg/kg/injection, schedule: Q01DX005 (ip), vehicle: Klucel + Tween-80 110 % of control and 114 % of control and 122 % of control | dose: 264.0 mg/kg/injection, schedule: Q01DX009 (ip), vehicle: Klucel + Tween-80 93 % of control | dose: 400.0 mg/kg/injection, schedule: Q01DX009 (ip), vehicle: Klucel + Tween-80 92 % of control

O=c1[nH]cnc2cc(N3CCCCC3)c([N+](=O)[O-])cc12
inactive: dose: 100.0 mg/kg/injection, schedule: Q04DX003 (ip), vehicle: saline with Tween-80 102 % of control | dose: 200.0 mg/kg/injection, schedule: Q04DX003 (ip), vehicle: saline with Tween-80 94 % of control | dose: 400.0 mg/kg/injection, schedule: Q04DX003 (ip), vehicle: saline with Tween-80 94 % of control

Cn1c(=O)c2c(ncn2-c2ccc(N)cn2)n(C)c1=O
inactive: dose: 12.5 mg/kg/injection, schedule: Q01DX005 (ip), vehicle: distilled water + alcohol 98 % of control | dose: 25.0 mg/kg/injection, schedule: Q01DX005 (ip), vehicle: distilled water + alcohol 104 % of control | [3] 96 % of control | dose: 50.0 mg/kg/injection, schedule: Q01DX005 (ip), vehicle: distilled water + alcohol 100 % of control

N#C/C(C(N)=O)=C(\C(=O)c1ccccc1)c1ccccc1
inactive: [1] 99 % of control | [2] 96 % of control

CCc1ccc(C2=C(Cl)C(=O)C(c3ccccc3)=C(Cl)C2=O)cc1
inactive: [4] 98 % of control | [5] 93 % of control | [3] 93 % of control and 98 % of control

CC(C)C(=O)CP(=O)(O)O
inactive: [6] 106 % of control | [7] 101 % of control | dose: 200.0 mg/kg/injection, schedule: Q01DX009 (ip), vehicle: saline 108 % of control

Cc1ccccc1NC(=O)OCC(CCl)(CCl)CCl
inactive: dose: 100.0 mg/kg/injection, schedule: Q04DX002 (ip), vehicle: Klucel (hydroxypropylcellulose) (HPC) 99 % of control | dose: 200.0 mg/kg/injection, schedule: Q04DX002 (ip), vehicle: Klucel (hydroxypropylcellulose) (HPC) 96 % of control | dose: 400.0 mg/kg/injection, schedule: Q04DX002 (ip), vehicle: Klucel (hydroxypropylcellulose) (HPC) 89 % of control
